# Test results from patent EP4714938A1, “HDAC1/2 SELECTIVE INHIBITOR AND USE THEREOF” (Wigen Biomedicine Technology (Shanghai) Co., Ltd., priority 2023, dated 2024).
# Read-outs that look alike come from different tables or passages of the source.
# Experiments:
# [1] = test system: Mouse colon cancer MC38 cells; conditions: MC-38
# Experimental: Female C57BL6N mice (aged 6 weeks, 18-22 g) were provided by Vital River Laboratory Animal Technology Co., Ltd. (China) and used one week after quarantine and acclimation. All animals were kept in a room at 23±2 °C with a relative humidity of 50±5%, artificial lighting was provided from 08:00 to 20:00 every day, and the air was exchanged 13-18 times per hour.
# Mouse colon cancer MC38 cells were cultured conventionally in 1640 medium containing 10% fetal bovine serum in an incubator at 37 °C with 5% CO2. After being subcultured, the cells were collected when they reached the desired amount. The C57BL6N mice were subcutaneously injected with 2 × 10^6 MC38 cells on the right side to form tumors. After the tumors grew to about 100 mm^3, the animals were randomly grouped for administration. Tumor volumes were measured with a caliper on day 3, day 7, day 10, day 14, day 17, and day 21 after the administration. The ability of the compounds to inhibit tumor growth was evaluated according to the tumor growth inhibition rate (TGI) = 1 - (tumor volume on day 28 in treatment group - tumor volume on day 1 in treatment group)/(tumor volume on day 28 in control group - tumor volume on day 1 in control group). The toxicity of the compounds was evaluated according to the body weight and state of the mice.
# The groups were as follows: 1) solvent control group; 2) PD-1+Reg group; 3) Compound 1 group; 4) Reference Compound group; 5) compound 1 (10mg/kg) and PD-1+Reg Combination group; 6) compound 1 (30mg/kg) and PD-1+Reg Combination group; 7) compound 1 (90mg/kg) and PD-1+Reg Combination group; 8) Reference Compound (10mg/kg) and PD-1+Reg Combination group; 9) Reference Compound (30mg/kg) and PD-1+Reg Combination group; 10) Reference Compound (90mg/kg) and PD-1+Reg Combination group, with 6 mice per group.
# Reg represents Regorafenib PD-1 represents an anti-PD-1 antibody; IV represents administration via intravenous injection; PO represents oral administration; QD represents once-daily administration; QW represents once-weekly administration; CR represents complete remission (complete disappearance of the tumor after the dosing cycle is completed); PR represents partial response (tumor volume reduction exceeding 30% relative to the initial volume upon completion of the administration cycle); SD represents stable disease (tumor volume reduction or growth not exceeding 30% relative to the initial volume upon completion of the administration cycle); Died represents mouse died before the dosing cycle is completed; Administration period* is once daily (QD) for 10 consecutive days, followed by a 16-day off-treatment period; the once-weekly (QW) regimen is administered only on Day 1 and Day 8.
# HDAC2 = HDAC2 (Homo sapiens, UniProt Q92769); assay: HDAC enzyme inhibitory activity, FRET method; assay type: biochemical
# HDAC5 = HDAC5 (Homo sapiens, UniProt Q9UQL6); assay: HDAC enzyme inhibitory activity, FRET method; assay type: biochemical; conditions: Table 6; read-out: IC50 HDAC subtype 5
# HDAC5, sequence (Q9UQL6 whole entry, species assumed): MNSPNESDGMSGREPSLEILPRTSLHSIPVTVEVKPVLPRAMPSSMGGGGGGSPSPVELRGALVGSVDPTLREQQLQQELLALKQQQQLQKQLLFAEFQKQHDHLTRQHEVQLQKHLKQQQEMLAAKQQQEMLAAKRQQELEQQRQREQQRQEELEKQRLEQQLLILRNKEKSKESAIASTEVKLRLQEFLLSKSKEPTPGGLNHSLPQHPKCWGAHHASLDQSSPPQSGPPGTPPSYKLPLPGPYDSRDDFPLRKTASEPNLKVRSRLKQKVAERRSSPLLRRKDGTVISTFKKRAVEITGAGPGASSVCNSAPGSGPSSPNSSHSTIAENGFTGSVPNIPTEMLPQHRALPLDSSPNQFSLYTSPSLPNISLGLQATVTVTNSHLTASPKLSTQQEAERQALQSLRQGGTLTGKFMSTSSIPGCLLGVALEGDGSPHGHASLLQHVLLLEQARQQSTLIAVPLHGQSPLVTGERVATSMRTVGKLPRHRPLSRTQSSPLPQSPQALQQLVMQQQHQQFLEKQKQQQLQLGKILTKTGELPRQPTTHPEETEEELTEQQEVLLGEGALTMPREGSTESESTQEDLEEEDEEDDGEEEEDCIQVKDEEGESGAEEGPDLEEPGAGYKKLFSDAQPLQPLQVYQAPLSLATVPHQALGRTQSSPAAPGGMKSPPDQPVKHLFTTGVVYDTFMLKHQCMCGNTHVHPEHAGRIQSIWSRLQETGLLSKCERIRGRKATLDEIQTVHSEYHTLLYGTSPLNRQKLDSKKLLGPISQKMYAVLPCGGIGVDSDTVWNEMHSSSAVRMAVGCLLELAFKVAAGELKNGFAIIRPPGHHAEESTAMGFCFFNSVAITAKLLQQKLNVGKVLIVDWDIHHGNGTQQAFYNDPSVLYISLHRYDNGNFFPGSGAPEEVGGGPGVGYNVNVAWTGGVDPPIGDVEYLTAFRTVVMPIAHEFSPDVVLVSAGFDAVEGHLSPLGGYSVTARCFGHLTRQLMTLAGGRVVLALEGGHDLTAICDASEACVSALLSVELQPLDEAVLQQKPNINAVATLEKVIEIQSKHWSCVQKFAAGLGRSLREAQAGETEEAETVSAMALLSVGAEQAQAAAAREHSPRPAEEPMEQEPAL
# Experimental: (§2) The compounds of the present disclosure were assayed for enzyme inhibitory activity against various subtypes of HDAC enzymes by the FRET method. The various subtypes of HDAC enzymes were obtained either through purification or direct purchase of assay kits.
# (§3) The specific method was as follows: The enzyme was added to a 384-well plate, and a reaction buffer was added to the control well. Serially diluted DMSO sample solutions were added to the reaction wells, and the plate was incubated at room temperature for 15 min. Then a chromogenic agent was added to stop the reaction, and fluorescence was generated. The fluorescence intensity was measured using an EnVision multi-label microplate reader (excitation: 355 nm, emission: 460 nm). The endpoint value was read after the color development reached stability. The inhibition IC50 of the compounds was calculated using GraphPad Prism4 software relative to DMSO.
# HDAC4 = HDAC4 (Homo sapiens, UniProt P56524); assay: HDAC enzyme inhibitory activity, FRET method; assay type: biochemical; conditions: Table 6; read-out: IC50 HDAC subtype 4
# HDAC4, sequence (P56524 whole entry, species assumed): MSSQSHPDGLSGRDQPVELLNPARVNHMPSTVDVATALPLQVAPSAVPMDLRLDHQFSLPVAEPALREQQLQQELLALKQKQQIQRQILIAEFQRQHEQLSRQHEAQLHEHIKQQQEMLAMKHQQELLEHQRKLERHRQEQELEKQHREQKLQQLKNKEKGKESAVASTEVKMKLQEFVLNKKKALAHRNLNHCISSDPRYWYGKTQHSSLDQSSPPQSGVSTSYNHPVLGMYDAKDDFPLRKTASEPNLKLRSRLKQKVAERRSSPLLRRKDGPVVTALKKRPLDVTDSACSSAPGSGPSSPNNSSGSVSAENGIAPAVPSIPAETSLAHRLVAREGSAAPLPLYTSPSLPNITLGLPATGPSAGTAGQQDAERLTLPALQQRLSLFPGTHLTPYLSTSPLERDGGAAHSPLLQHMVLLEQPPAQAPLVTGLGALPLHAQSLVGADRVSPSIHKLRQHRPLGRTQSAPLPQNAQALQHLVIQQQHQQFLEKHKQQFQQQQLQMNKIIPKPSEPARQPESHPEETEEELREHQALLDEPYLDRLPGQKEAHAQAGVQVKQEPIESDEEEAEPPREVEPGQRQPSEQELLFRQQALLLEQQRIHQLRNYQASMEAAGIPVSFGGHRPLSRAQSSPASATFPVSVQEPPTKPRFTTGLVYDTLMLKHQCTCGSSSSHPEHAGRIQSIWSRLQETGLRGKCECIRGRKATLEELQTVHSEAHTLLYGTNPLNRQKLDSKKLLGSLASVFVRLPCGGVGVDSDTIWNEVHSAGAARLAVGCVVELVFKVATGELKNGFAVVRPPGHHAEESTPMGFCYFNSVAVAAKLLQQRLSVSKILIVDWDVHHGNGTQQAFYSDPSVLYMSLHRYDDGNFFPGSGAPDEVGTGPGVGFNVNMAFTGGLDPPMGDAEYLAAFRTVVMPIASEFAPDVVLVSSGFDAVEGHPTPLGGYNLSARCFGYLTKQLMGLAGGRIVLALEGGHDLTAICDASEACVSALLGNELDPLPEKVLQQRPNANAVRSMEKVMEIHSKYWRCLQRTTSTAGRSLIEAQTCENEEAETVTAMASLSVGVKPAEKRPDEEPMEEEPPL
# Experimental: as §2, §3
# Jurkat cell = assay: Inhibition of cell proliferation (CTG, intracellular ATP); assay type: cell-based; conditions: Homo sapiens, Jurkat, 72 h
# Experimental: (§1) Jurkat or 293T cells were seeded into a 96-well plate at 3000 cells/well. After overnight adherence culture, the serially diluted compound in DMSO was added. After 72 h, the intracellular ATP level was determined by CTG. The IC50 for the inhibition of cell proliferation by the compounds was calculated compared to the DMSO group. Table 7. Inhibitory activity of compounds of the present disclosure against Jurkat/293T cell proliferation (IC50, µM)
# 293T cell = assay: as above; assay type: cell-based; conditions: Homo sapiens, HEK-293T, 72 h
# Experimental: as §1
# HDAC6 = target: T1, HDAC6 (Homo sapiens, UniProt Q9UBN7); assay: HDAC enzyme inhibitory activity, FRET method; assay type: biochemical; conditions: Table 6; read-out: IC50 HDAC subtype 6
# T1 sequence (Q9UBN7 1-1215): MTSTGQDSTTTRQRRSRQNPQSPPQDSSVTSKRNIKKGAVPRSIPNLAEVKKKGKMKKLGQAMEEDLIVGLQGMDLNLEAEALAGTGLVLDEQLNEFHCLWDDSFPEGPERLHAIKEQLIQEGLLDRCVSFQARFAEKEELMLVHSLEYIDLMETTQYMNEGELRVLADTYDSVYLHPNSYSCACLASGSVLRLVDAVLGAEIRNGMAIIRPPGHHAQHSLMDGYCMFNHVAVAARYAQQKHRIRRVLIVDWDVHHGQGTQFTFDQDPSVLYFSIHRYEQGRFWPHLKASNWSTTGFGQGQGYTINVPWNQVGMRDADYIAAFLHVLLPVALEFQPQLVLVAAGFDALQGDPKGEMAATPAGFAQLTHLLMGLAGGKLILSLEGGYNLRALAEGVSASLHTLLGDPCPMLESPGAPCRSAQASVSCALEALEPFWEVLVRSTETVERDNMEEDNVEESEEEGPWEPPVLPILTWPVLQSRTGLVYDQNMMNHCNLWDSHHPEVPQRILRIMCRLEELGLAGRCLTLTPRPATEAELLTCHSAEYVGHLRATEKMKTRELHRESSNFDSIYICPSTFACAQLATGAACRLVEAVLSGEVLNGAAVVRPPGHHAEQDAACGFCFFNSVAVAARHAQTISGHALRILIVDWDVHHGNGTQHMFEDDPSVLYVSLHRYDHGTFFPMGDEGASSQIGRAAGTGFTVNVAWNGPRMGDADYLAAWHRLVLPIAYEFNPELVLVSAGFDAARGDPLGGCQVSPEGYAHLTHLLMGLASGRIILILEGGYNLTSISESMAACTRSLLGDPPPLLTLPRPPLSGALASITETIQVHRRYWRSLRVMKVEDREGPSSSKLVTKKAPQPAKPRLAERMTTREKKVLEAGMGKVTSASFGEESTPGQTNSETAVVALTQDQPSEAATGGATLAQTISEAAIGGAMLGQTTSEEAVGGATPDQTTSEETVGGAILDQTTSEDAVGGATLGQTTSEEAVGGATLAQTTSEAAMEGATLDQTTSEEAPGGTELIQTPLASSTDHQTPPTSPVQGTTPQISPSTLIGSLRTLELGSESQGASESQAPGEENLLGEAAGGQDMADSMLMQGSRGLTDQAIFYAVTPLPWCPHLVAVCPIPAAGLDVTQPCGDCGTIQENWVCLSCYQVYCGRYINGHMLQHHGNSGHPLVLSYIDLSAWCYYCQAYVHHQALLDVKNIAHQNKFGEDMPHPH
# Experimental: as §2, §3
# HDAC11 = target: T2, HDAC11 (Homo sapiens, UniProt Q96DB2); assay: HDAC enzyme inhibitory activity, FRET method; assay type: biochemical; conditions: Table 6; read-out: IC50 HDAC subtype 11
# T2 sequence (Q96DB2 1-347): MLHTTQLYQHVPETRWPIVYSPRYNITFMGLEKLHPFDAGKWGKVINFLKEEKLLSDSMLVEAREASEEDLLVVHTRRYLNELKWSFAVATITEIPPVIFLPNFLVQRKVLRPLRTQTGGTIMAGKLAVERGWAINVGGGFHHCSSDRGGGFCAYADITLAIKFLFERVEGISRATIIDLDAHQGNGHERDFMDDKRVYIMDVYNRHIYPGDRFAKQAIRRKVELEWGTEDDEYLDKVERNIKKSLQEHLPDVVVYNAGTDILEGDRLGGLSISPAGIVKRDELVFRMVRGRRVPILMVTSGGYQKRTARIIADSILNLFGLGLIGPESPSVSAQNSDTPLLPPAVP
# Experimental: as §2, §3
# HDAC2, sequence (Q92769 whole entry, species assumed): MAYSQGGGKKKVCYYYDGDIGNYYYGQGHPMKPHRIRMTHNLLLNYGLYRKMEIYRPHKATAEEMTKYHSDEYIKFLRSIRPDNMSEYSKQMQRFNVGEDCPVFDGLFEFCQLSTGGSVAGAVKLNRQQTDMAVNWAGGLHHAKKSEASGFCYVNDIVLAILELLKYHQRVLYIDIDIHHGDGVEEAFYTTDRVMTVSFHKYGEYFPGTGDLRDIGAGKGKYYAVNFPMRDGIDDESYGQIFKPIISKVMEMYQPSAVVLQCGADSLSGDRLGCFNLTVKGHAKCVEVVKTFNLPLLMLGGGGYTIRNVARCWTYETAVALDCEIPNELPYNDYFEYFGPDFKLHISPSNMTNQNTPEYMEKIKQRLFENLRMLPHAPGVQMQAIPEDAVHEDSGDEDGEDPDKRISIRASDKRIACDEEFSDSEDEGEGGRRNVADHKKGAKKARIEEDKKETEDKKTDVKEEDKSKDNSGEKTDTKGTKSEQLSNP
compound,measurement,setting,value
"CS(C)(=O)=Nc1ccc(C(=O)Nc2cc(-c3ccc(F)cc3)ccc2N)cc1 [Compound 1, N-(4-Amino-4'-fluoro-[1,1'-biphenyl]-3-yl)-4-((dimethyl(oxo)-1^λ-6-sulfaneylidene)amino)benzamide]",Change in body weight(%),[1]; monotherapy 90 mg/kg QD PO,11.08 ± 1.08%
same,"Tumor response, number of mice (CR/PR/SD)","[1]; monotherapy 90 mg/kg QD PO, CR complete remission, PR partial response, SD stable disease, 6 mice per group",5CR
same,TGI(%),"[1]; monotherapy 90 mg/kg, QD for 10 consecutive days, PO",100.54%
same,"complete tumor regression, % of mice",[1]; monotherapy group (5/6),83.3%
same,IC50,"HDAC2; Table 4, read-out: IC50 HDAC2",< 500 nM
same,IC50,"HDAC2; Table 5, read-out: IC50 HDAC2",30 to 300 nM
same,IC50,"HDAC2; Table 6, read-out: IC50 HDAC subtype 2",141 nM
same,IC50,HDAC5,> 30000 nM
same,IC50,HDAC4,> 30000 nM
same,IC50,Jurkat cell,650 nM
same,IC50,293T cell,> 10000 nM
same,IC50,HDAC6,> 30000 nM
same,IC50,HDAC11,> 30000 nM
